Results published in US20210038577A1, “THIOREDOXIN REDUCTASE INHIBITORS FOR USE IN THE TREATMENT OF CANCER” (Cinda Pharma AB, priority 2018, published 2021).
pIC50: −log10 of the molar value.

How the values were obtained:
[1] = biological target: T1, GR from baker's yeast (Saccharomyces cerevisiae, UniProt P41921); experiment: Glutathione reductase (GR) activity assay; assay type: biochemical; details: Molar concentration
T1 sequence (P41921 17-483 limits assumed): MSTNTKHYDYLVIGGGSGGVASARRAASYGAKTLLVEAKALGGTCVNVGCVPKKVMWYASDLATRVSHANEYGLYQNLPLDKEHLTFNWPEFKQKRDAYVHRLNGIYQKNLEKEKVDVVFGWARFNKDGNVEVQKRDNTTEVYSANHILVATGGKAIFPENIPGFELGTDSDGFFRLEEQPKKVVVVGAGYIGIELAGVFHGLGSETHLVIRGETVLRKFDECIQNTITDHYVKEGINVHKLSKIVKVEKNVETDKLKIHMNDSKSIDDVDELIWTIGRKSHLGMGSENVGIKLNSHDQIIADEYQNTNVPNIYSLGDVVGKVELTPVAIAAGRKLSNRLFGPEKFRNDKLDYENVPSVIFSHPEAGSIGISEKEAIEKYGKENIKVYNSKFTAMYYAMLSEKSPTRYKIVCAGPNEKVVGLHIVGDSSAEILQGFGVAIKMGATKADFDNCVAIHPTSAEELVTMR
Method: GR activity was determined incubating compounds at various concentrations with GR from baker's yeast and 250 μM NADPH for 15 minutes, whereupon 10 mM oxidized glutathione (GSSG) was added to each well and NADPH consumption was followed at OD340. Activity was determined following the consumption of NADPH over time and normalized to DMSO only (Vehicle) and GR lacking (blank) controls.

[2] = tested on: Trx in MDA-MB-231 cells; experiment: Intracellular Trx levels by ELISA in MDA-MB-231 tumor cells; assay type: cell-based, human; details: for intracellular Trx during treatment: 0.1 μM, 1 μM and 10 μM, over 96 hours; for total intracellular Trx at end of experiment versus untreated cell cultures: end of experiment (96 hours)
Method: The human mammary carcinoma cell line MDA-MB-231 was obtained from the American Type Culture Collection (ATCC; Manassas, Va.) and cultured in Leibovitz's L-15 medium (Thermo Fisher Scientific, USA) supplemented with 10% (v/v) heat-inactivated fetal bovine serum (Thermo Fisher Scientific, USA), 10 mM HERBS (Sigma), 25 mM sodium bicarbonate (Sigma), 1× Glutamax (Sigma), 100 IU/mL penicillin and 100 μg/ml streptomycin (Sigma) in a 5% CO2 atmosphere at 37° C. Briefly, cells were seeded at 7500 cells/well in 96-well plates. After 24 h, the cells were treated either with different concentrations of test compounds or DMSO (0.5%; vehicle control) respectively and further incubated at 37° C. in a CO2 incubator. Culture supernatants were collected at different time points, like, immediately after cell plating (−24 h), 0 h (at the time of compound addition), and 1 h, 6 h, 12 h, 24 h, 48 h, 72 h and 96 h following compound addition. Subsequently, cells were lysed from corresponding wells with 0.1% Triton X-100 and the lysates were collected. Trx levels were measured in both the culture supernatants and cell lysates by ELISA using TXN (Human) ELISA Kit [Abnova; Cat no: KA0535] following manufacturer instruction. A standard curve was prepared using different concentrations of the Trx standard (provided in the kit) with the help of GraphPad Prism software (version 5.0; La Jolla, Calif., USA). Trx concentrations for the unknown samples were calculated from the standard curve. The data were expressed as the means of three replicates.

[3] = tested on: MDA-MB-231 xenografts; experiment: MDA-MB-231 xenograft tumor growth in immunodeficient athymic nude mice; assay type: in vivo; details: for TGI: 12 doses; for final tumor volumes versus vehicle (waterfall plot): end of experiment (22 days OT-1000, 25 days OT-1129)
Method: Athymic nude mice were inoculated orthotopically with 5×10^6 MDA-MB-231 breast cancer cells into the mammary fat pad, and randomized for treatment when tumors reached an average volume of 80-120 mm^3 (N=12 in each group). […] Xenograft tumor volume was assessed using caliper measurements for 22 days. Athymic nude mouse model is described by Richmond A, and Su Y., Disease Models & Mechanisms. 2008; 1(2-3):78-82.
Athymic nude mice were inoculated orthotopically with 5×10^6 MDA-MB-231 breast cancer cells into the mammary fat pad, and randomized for treatment when tumors reached an average volume of 80-120 mm^3 (N=12 in each group). […] Xenograft tumor volume was assessed using caliper measurements for 25 days. MDA-MB-231 Xenograft Tumor Growth in Immunodeficient Athymic Nude Mice Treated with OT-1096 or Vehicle Control. Athymic nude mice were inoculated orthotopically with 5×10^6 MDA-MB-231 breast cancer cells into the mammary fat pad and randomized for treatment when tumors reached an average volume of 80-120 mm^3 (N=12 in each group). Mice were treated with 10 mg/kg OT-1096 via i.v. injection or with vehicle i.v., once a day using a 5 day on two day off (5/2) dosing regimen for the duration of the experiment. Xenograft tumor volume was assessed using caliper measurements for 25 days. Data is represented as mean tumor volume±SEM. Statistical significance (p<0.05) was determined using a Two-way repeated measures ANOVA with Sidak's multiple comparison test. […] Relative Luminescence Flux in Primary 4T1-Luc2 Immunocompetent Tumors Implanted into the Mammary Fat Pad of BALB/C Mice and Treated with OT-1096 or Vehicle Control. Female BALB/c immunocompetent mice were implanted with 1×10^5 4T1-luc2 murine tumor cells into the mammary fat pad. Upon growth of the tumors between 60-90 mm^3 the animals were selected for imaging. Mice were randomized and enrolled for treatment based on imaging flux values. Mice were treated once daily with 5 mg/kg of either OT-1096 or vehicle control using a 5/2 (five days on, two days off) dosing protocol. Upon days 1, 8, and 15 whole body imaging was performed on the mice to follow tumor cell luminescence. Analysis consists of primary tumor luminescence in mice. Each mouse was normalized to its own baseline luminescence from day 1. […] Data is represented as mean±SEM. Statistical significance (p<0.05) was determined using a Mann-Whitney test. The relative luminescence flux for mice treated with OT-1096 was significant compared to vehicle at day 15. Primary Tumor Growth of TM00098 Patient Derived Xenografts-Triple Negative Breast Cancer in Immunocompetent Humanized NSG Mice (Hu-CD34-NSG) Treated with OT-1096 or Vehicle Control. Female NSG mice were implanted with human CD34+ hematopoietic stem cells from multiple donors and the level of human CD45+ cells were measured in the peripheral blood 12 weeks post engraftment. Mice with >25% human CD45+ cells in the peripheral blood were determined to have a humanized immune system (Hu-CD34-NSG™) mice and were enrolled into the study. The Hu-CD34-NSG mice were implanted with TM00098 patient-derived xenografts (PDX) subcutaneously on the right flank. The TM00098 PDX cancer cells originate from a primary tumor of a patient suffering from a grade 3 TNBC invasive ductal carcinoma. When the tumors reached a volume between 60-120 mm^3 mice were treated with either 10 mg/kg OT-1096 three times a week intravenously (donor 5243 n=5, donor 5252 n=7) or with a vehicle three times a week intravenously (donor 5243 n=3, donor 5252 n=2). In case of tail vein swelling when the test substance or vehicle could not be administered intravenously, Intraperitoneal injection was applied. Tumor volume was measured using a digital caliper two times a week for the duration of the study. Animals that reached a body condition score of ≤2, a body weight loss of ≥20% or a tumor volume >2000 mm^3 were euthanized before study terminus. Animals with ulcerated tumors were also euthanized before study terminus. […]

Row | SMILES | pIC50 [1] | intracellular levels of Trx compared with control cells ([2]; at 10 μM) | time after which intracellular Trx is reduced compared with control cells ([2]; at 10 μM) | % TGI ([3]; 10 mg/kg IV, 5 day on two day off (5/2), 25 days) | mean tumor volume compared to vehicle ([3]; 10 mg/kg i.v. 5/2, day 25, p<0.05) | intracellular Trx during treatment [2] | total intracellular Trx at end of experiment versus untreated cell cultures [2] | TGI ([3]; 25 mg/kg intravenously, 25 days) | final tumor volumes versus vehicle (waterfall plot) [3] | intracellular Trx levels in comparison to untreated cells ([2]; e.g. at the 96 h time point) | TGI ([3]; 25 mg/kg intraperitoneally, 25 days) | tumor growth inhibition rate (TGI) ([3]; 10 mg/kg IV, 11 times over 22 days)
1 | CCCCCCCCS(=O)(=O)c1nc(OC)ccc1[N+](=O)[O-] [OT-1096, 6-methoxy-3-nitro-2-(octylsulfonyl)pyridine] | < 4.52 | reduced | 24 h | 19% | statistically significant |  |  |  |  |  |  | 
2 | CCS(=O)(=O)c1nc(OC)ccc1[N+](=O)[O-] [OT-1129, 2-(ethylsulfonyl)-6-methoxy-3-nitropyridine] | < 4.52 |  |  |  |  | appears to decline | lower | 25% | more frequently of lower size than vehicle-treated tumors |  |  | 
3 | NC(=O)c1ccc(I)c([N+](=O)[O-])c1 [Iniparib, 4-Iodo-3-nitrobenzamide, reference compound] | < 4.52 |  |  |  |  |  |  |  |  | reduced | 9% | 
4 | COc1ccc([N+](=O)[O-])c(S(=O)(=O)c2ccc(Cl)cc2)n1 [OT-1000, 2-((4-Chlorophenyl)sulfonyl)-6-methoxy-3-nitropyridine] | < 4.52 |  |  |  |  | appears to decline | lower |  | more frequently of lower size than vehicle-treated tumors |  |  | 37%
